Laboratory results published in ChEMBL document CHEMBL3627674, “Discovery of wrightiadione as a novel template for the TrkA kinase inhibitors” (Bioorg Med Chem Lett, 2015).

How the values were obtained:
[1] = biological target: Serine/threonine-protein kinase 32C (Homo sapiens) (UniProt Q86UX6); test: Inhibition of YANK3 (unknown origin) assessed as remaining activity at 10 uM by high-throughput assay relative to control
[2] = biological target: Casein kinase I isoform delta (Homo sapiens) (UniProt P48730); test: Inhibition of CSNK1D (unknown origin) assessed as remaining activity at 10 uM by high-throughput assay relative to control
[3] = biological target: Epidermal growth factor receptor (Homo sapiens) (UniProt P00533); test: Inhibition of EGFR (unknown origin) assessed as remaining activity at 10 uM by high-throughput assay relative to control
[4] = biological target: MAP kinase-interacting serine/threonine-protein kinase 1 (Homo sapiens) (UniProt Q9BUB5); test: Inhibition of MKNK1 (unknown origin) assessed as remaining activity at 10 uM by high-throughput assay relative to control
[5] = biological target: Tyrosine-protein kinase JAK3 (Homo sapiens) (UniProt P52333); test: Inhibition of JAK3 JH1 catalytic domain (unknown origin) assessed as remaining activity at 10 uM by high-throughput assay relative to control
[6] = biological target: Aurora kinase B (Homo sapiens) (UniProt Q96GD4); test: Inhibition of AURKB (unknown origin) assessed as remaining activity at 10 uM by high-throughput assay relative to control
[7] = biological target: 3-phosphoinositide-dependent protein kinase 1 (Homo sapiens) (UniProt O15530); test: Inhibition of PDPK1 (unknown origin) assessed as remaining activity at 10 uM by high-throughput assay relative to control
[8] = tested on: Mast/stem cell growth factor receptor Kit (Homo sapiens), P10721 [D816V]; test: Inhibition of KIT D816V mutant (unknown origin) assessed as remaining activity at 10 uM by high-throughput assay relative to control
[9] = biological target: Serine/threonine-protein kinase PLK1 (Homo sapiens) (UniProt P53350); test: Inhibition of PLK1 (unknown origin) assessed as remaining activity at 10 uM by high-throughput assay relative to control
[10] = biological target: Aurora kinase A (Homo sapiens) (UniProt O14965); test: Inhibition of AURKA (unknown origin) assessed as remaining activity at 10 uM by high-throughput assay relative to control
[11] = biological target: Mitogen-activated protein kinase 10 (Homo sapiens) (UniProt P53779); test: Inhibition of JNK3 (unknown origin) assessed as remaining activity at 10 uM by high-throughput assay relative to control
[12] = biological target: Proto-oncogene tyrosine-protein kinase receptor Ret (Homo sapiens) (UniProt P07949); test: Inhibition of RET (unknown origin) assessed as remaining activity at 10 uM by high-throughput assay relative to control
[13] = biological target: Cyclin-dependent kinase 7 (Homo sapiens) (UniProt P50613); test: Inhibition of CDK7 (unknown origin) assessed as remaining activity at 10 uM by high-throughput assay relative to control
[14] = biological target: Tyrosine-protein kinase ZAP-70 (Homo sapiens) (UniProt P43403); test: Inhibition of ZAP70 (unknown origin) assessed as remaining activity at 10 uM by high-throughput assay relative to control
[15] = biological target: Serine/threonine-protein kinase ULK2 (Homo sapiens) (UniProt Q8IYT8); test: Inhibition of ULK2 (unknown origin) assessed as remaining activity at 10 uM by high-throughput assay relative to control
[16] = biological target: Platelet-derived growth factor receptor alpha (Homo sapiens) (UniProt P16234); test: Inhibition of PDGFRA (unknown origin) assessed as remaining activity at 10 uM by high-throughput assay relative to control
[17] = biological target: Testis-specific serine/threonine-protein kinase 1 (Homo sapiens) (UniProt Q9BXA7); test: Inhibition of TSSK1B (unknown origin) assessed as remaining activity at 10 uM by high-throughput assay relative to control
[18] = biological target: Ephrin type-A receptor 2 (Homo sapiens) (UniProt P29317); test: Inhibition of EPHA2 (unknown origin) assessed as remaining activity at 10 uM by high-throughput assay relative to control
[19] = tested on: Serine/threonine-protein kinase B-raf (Homo sapiens), P15056 [V600E]; test: Inhibition of BRAF V600E mutant (unknown origin) assessed as remaining activity at 10 uM by high-throughput assay relative to control
[20] = biological target: MAP kinase-interacting serine/threonine-protein kinase 2 (Homo sapiens) (UniProt Q9HBH9); test: Inhibition of MKNK2 (unknown origin) assessed as remaining activity at 10 uM by high-throughput assay relative to control
[21] = biological target: Dual specificity mitogen-activated protein kinase kinase 2 (Homo sapiens) (UniProt P36507); test: Inhibition of MEK2 (unknown origin) assessed as remaining activity at 10 uM by high-throughput assay relative to control
[22] = biological target: Tyrosine-protein kinase JAK2 (Homo sapiens) (UniProt O60674); test: Inhibition of JAK2 JH1 catalytic domain (unknown origin) assessed as remaining activity at 10 uM by high-throughput assay relative to control
[23] = biological target: Cyclin-dependent kinase 3 (Homo sapiens) (UniProt Q00526); test: Inhibition of CDK3 (unknown origin) assessed as remaining activity at 10 uM by high-throughput assay relative to control
[24] = biological target: Serine/threonine-protein kinase PAK 1 (Homo sapiens) (UniProt Q13153); test: Inhibition of PAK1 (unknown origin) assessed as remaining activity at 10 uM by high-throughput assay relative to control
[25] = biological target: Rho-associated protein kinase 2 (Homo sapiens) (UniProt O75116); test: Inhibition of ROCK2 (unknown origin) assessed as remaining activity at 10 uM by high-throughput assay relative to control
[26] = biological target: Serine/threonine-protein kinase B-raf (Homo sapiens) (UniProt P15056); test: Inhibition of BRAF (unknown origin) assessed as remaining activity at 10 uM by high-throughput assay relative to control
[27] = biological target: Tyrosine-protein kinase receptor UFO (Homo sapiens) (UniProt P30530); test: Inhibition of AXL (unknown origin) assessed as remaining activity at 10 uM by high-throughput assay relative to control
[28] = biological target: Tyrosine-protein kinase BTK (Homo sapiens) (UniProt Q06187); test: Inhibition of BTK (unknown origin) assessed as remaining activity at 10 uM by high-throughput assay relative to control
[29] = biological target: Serine/threonine-protein kinase PLK3 (Homo sapiens, UniProt Q9H4B4); test: Inhibition of PLK3 (unknown origin) assessed as remaining activity at 10 uM by high-throughput assay relative to control
[30] = biological target: Tyrosine-protein kinase ABL1 (Homo sapiens) (UniProt P00519); test: Inhibition of ABL1 (unknown origin) assessed as remaining activity at 10 uM by high-throughput assay relative to control
[31] = biological target: High affinity nerve growth factor receptor (Homo sapiens, UniProt P04629); test: Inhibition of TrkA (unknown origin) by radiometric analysis in presence of [gamma-33P]-ATP
[32] = biological target: Macrophage colony-stimulating factor 1 receptor (Homo sapiens) (UniProt P07333); test: Inhibition of CSF1R (unknown origin) assessed as remaining activity at 10 uM by high-throughput assay relative to control

Sequence of Rho-associated protein kinase 2 (Homo sapiens) (O75116 whole entry, looked up): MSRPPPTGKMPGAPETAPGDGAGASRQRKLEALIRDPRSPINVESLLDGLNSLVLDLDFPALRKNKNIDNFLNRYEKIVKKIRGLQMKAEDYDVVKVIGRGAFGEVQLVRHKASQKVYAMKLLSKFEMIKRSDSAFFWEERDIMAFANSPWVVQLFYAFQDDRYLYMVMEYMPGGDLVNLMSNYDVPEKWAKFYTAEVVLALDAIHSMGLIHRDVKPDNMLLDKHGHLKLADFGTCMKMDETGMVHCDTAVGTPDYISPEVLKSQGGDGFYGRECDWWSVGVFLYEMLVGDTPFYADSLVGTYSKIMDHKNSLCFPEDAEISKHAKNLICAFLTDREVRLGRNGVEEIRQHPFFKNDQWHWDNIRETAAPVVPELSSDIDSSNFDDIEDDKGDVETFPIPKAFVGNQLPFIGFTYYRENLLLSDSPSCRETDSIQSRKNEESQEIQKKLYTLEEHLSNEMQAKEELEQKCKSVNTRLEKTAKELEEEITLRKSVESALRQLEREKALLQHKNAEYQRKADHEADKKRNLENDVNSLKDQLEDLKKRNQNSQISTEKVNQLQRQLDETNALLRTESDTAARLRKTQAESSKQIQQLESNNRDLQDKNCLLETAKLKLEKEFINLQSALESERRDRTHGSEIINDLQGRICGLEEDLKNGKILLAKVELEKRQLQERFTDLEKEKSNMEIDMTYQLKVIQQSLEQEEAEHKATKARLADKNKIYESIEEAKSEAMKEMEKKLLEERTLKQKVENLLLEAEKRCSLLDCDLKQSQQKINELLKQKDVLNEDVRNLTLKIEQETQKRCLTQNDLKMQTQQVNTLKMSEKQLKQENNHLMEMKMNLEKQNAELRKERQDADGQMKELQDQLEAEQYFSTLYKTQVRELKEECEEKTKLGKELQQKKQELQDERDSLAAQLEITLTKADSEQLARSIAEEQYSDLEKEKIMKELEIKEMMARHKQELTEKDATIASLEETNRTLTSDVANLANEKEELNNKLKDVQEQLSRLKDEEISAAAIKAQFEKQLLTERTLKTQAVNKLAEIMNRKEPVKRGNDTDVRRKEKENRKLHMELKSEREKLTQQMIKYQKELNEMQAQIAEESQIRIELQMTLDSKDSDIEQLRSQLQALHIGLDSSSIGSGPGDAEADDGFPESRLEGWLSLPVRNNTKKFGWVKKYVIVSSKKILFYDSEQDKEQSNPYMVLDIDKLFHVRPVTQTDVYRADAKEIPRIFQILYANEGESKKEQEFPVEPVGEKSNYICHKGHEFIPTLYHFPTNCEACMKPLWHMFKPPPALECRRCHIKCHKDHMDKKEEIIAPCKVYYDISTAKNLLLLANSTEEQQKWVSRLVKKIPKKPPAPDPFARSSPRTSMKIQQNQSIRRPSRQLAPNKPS
Sequence of MAP kinase-interacting serine/threonine-protein kinase 1 (Homo sapiens) (Q9BUB5 whole entry, looked up, the tested form may be a part): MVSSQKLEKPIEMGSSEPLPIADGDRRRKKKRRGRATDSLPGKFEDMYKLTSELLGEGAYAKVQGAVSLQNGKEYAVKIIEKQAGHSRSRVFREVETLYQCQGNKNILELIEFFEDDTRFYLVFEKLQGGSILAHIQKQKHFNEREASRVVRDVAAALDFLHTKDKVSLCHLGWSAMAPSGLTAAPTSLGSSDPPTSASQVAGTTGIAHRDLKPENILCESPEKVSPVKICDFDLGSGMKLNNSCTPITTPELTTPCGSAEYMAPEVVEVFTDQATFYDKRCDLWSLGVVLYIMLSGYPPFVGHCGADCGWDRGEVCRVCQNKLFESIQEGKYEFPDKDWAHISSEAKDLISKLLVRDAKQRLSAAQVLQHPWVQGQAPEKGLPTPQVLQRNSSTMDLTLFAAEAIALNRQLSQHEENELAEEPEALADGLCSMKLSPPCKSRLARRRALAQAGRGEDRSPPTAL
Sequence of Dual specificity mitogen-activated protein kinase kinase 2 (Homo sapiens) (P36507 whole entry, the tested form may be a part): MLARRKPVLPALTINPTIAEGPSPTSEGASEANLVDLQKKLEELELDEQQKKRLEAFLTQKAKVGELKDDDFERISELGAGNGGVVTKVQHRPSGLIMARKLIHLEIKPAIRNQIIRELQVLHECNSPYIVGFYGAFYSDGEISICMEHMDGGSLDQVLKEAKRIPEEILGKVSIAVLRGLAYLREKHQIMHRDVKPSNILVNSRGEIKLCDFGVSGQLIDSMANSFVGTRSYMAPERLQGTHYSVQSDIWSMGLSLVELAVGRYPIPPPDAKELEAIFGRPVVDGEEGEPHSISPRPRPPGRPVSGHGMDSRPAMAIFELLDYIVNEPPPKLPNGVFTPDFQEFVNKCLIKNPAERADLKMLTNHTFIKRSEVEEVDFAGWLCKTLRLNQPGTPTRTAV
Sequence of Cyclin-dependent kinase 7 (Homo sapiens) (P50613 whole entry): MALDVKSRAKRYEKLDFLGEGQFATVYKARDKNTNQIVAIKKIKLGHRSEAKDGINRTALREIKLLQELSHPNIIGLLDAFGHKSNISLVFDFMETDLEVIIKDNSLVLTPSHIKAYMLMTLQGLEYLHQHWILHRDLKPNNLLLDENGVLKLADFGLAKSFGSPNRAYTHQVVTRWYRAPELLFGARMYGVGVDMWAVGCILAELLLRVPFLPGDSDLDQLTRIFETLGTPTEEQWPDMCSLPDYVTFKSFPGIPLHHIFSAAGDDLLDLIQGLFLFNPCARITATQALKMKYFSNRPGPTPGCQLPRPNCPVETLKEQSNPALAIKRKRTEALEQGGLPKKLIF
Sequence of Testis-specific serine/threonine-protein kinase 1 (Homo sapiens) (Q9BXA7 whole entry): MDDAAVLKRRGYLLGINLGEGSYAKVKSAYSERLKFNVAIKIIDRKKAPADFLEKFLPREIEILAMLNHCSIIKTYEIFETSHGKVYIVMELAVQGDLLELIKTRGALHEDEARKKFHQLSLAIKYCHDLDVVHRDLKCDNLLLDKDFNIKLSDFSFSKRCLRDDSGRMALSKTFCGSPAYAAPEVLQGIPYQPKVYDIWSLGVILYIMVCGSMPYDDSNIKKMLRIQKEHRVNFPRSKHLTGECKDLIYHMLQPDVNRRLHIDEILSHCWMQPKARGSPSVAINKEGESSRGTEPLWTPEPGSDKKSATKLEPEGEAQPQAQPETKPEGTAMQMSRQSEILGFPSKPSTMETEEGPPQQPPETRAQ
Sequence of Serine/threonine-protein kinase 32C (Homo sapiens) (Q86UX6 whole entry, canonical isoform): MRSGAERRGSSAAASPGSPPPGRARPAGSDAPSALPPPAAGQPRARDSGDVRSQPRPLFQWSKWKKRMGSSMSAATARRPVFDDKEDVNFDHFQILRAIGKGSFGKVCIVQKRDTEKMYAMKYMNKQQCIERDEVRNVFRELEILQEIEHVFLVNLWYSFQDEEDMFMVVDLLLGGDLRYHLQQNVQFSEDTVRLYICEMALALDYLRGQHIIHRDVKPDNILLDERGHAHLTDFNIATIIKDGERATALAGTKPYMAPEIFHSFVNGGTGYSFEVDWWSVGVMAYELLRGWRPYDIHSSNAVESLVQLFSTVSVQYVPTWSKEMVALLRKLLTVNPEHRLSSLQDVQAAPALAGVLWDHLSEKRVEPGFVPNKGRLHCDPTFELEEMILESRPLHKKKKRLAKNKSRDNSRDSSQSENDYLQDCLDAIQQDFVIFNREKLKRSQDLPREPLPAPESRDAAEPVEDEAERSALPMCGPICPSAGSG
Sequence of Serine/threonine-protein kinase B-raf (Homo sapiens), P15056 [V600E] (P15056 whole entry V600E): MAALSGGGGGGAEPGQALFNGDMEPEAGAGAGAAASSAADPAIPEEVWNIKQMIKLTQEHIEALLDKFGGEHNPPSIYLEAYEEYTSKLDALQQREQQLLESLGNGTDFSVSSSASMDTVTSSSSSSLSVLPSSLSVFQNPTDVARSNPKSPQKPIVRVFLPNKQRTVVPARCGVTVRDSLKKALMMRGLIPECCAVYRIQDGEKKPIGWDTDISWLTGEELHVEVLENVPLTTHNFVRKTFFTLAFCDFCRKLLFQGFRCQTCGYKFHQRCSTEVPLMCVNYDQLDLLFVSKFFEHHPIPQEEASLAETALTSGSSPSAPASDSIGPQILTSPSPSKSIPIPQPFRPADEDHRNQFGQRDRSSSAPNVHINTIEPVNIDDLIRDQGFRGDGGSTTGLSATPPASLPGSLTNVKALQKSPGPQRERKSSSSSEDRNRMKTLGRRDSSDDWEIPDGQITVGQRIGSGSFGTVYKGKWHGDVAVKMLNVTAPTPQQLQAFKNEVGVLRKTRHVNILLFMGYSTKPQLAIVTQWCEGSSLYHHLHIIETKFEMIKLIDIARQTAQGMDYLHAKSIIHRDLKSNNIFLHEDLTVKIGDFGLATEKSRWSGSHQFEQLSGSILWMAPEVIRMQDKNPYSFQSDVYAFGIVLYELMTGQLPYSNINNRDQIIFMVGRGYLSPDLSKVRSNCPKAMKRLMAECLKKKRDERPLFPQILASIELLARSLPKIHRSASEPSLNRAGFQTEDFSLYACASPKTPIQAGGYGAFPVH
Sequence of Aurora kinase A (Homo sapiens) (O14965 whole entry): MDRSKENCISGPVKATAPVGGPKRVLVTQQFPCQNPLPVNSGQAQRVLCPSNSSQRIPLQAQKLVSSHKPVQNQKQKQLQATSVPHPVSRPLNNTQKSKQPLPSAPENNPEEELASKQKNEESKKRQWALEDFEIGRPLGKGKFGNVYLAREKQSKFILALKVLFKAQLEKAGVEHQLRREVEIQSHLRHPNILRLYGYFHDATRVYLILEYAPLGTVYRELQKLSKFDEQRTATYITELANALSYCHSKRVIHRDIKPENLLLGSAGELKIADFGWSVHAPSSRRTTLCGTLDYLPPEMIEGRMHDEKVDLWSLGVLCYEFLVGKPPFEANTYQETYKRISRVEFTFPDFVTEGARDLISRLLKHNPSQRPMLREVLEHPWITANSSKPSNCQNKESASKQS
Sequence of Cyclin-dependent kinase 3 (Homo sapiens) (Q00526 whole entry, looked up): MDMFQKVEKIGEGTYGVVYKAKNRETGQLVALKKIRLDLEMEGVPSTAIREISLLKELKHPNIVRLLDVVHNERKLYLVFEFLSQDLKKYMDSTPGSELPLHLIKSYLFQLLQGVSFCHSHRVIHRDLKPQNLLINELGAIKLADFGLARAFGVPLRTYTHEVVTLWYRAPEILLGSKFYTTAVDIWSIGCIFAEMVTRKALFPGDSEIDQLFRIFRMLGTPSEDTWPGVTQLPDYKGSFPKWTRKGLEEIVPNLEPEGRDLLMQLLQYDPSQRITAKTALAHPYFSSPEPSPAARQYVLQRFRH

O=C1c2ccccc2-c2c1oc1ccccc1c2=O
Activity [1]: 78%
Activity [2]: 30%
Activity [3]: 93%
Activity [4]: 99%
Activity [5]: 61%
Activity [6]: 66%
Activity [7]: 99%
Activity [8]: 58%
Activity [9]: 38%
Activity [10]: 82%
Activity [11]: 33%
Activity [12]: 74%
Activity [13]: 59%
Activity [14]: 77%
Activity [15]: 59%
Activity [16]: 66%
Activity [17]: 71%
Activity [18]: 80%
Activity [19]: 72%
Activity [20]: 59%
Activity [21]: 71%
Activity [22]: 42%
Activity [23]: 91%
Activity [24]: 93%
Activity [25]: 79%
Activity [26]: 66%
Activity [27]: 26%
Activity [28]: 76%
Activity [29]: 8.3%
Activity [30]: 95%
IC50 [31]: 55.8 µM
Activity [32]: 77%
